Experimental data taken from PMC5226491, “Efficient therapeutic delivery by a novel cell-permeant peptide derived from KDM4A protein for antitumor and antifibrosis” (Oncotarget, 2016).

Key:
different cell lines [1] = tested on: different cell lines
Description: Membrane integrity was assessed by lactate dehydrogenase (LDH) leakage into the culture medium. […] Cell-free supernatant was obtained and transferred to another 96-well-plate; substrate mixture was added to each well for another 10 min enzymatic reaction. Absorbance was measured at 560/590 nm using a Multiskan Spectrum plate-reader (Thermo, USA).

Caski cells = type: cell-based, human
Description: (§1) Intracellular fluorescence intensity quantification was measured using Multimode Microplate Reader (Tecan 2000; Tecan, Mannedorf, Switzerland). The intracellular uptake of FITC-labeled peptide was performed as described previously. Briefly, after the incubation, cells were washed and then lysed by adding 300 μl lysing buffer (0.1 M NaOH) for 10 min, the cell lysates were harvested and centrifuged (14000 g for 5 min), the supernatant was used to measure the fluorescence intensity. The fluorescence of cellular uptake is expressed as fluorescence intensity per mg of total cellular protein. All experiments were repeated at least three times and always performed in triplicate.

different cell lines [2] = test: Uptake of FITC-labeled hPP10 in different cell lines; type: cell-based; conditions: for Effect of temperature on internalization: incubation at 4°C or 37°C, with or without DMSO
Description: as §1

[3] = tested on: primary cultured cells (mouse spleen lymphocytes, human peripheral blood lymphocytes, mouse primary fibroblast cells); test: Uptake of FITC-labeled hPP10 in primary cultured cells; type: cell-based; conditions: mouse spleen lymphocytes and hPBMCs with 5% DMSO treatment
Description: The internalization of FITC conjugated hPP10 into cultured cells was observed using fluorescence microscopy. All types of cells were plated in 24-well-plates (Greiner, Germany) and cultivated to semi-confluence in RPMI-1640 medium in a CO2 incubator for 24 h at 37°C. Cells were washed with PBS, followed by 5.0 μM FITC-labeled peptide or fusion protein incubation with serum-free medium for 1 h at 37°C, the medium was removed, the cells were further washed with PBS 3 times, and then imaged using fluorescence microscope (Nikon, Japan) with a band-pass filter.

different cell lines [4] = tested on: different cell lines; remark: listed apart in the source
Description: Cells were seeded in 96-well plates at 24 h before treatment. […] MTT solution (5 mg/mL) was added into fresh serum medium for further 4 h incubation. DMSO was used to solubilize formazan, and the absorbance was measured using a Multiskan Spectrum plate reader (Thermo, USA).

Sequence | Membrane disturbance, LDH release (different cell lines [1]) | Fluorescence of cytosol compared with TAT-FITC (Caski cells) | Permeation of cancerous or immortalized cell lines (different cell lines [2]; B16, ECV304, HepG2, T24, L929, HSC-T6, THP1, 5 μM FITC-labeled peptide, 1 h) | Permeation of primary cultured cells [3] | Cytotoxicity, MTT assay (different cell lines [4]) | Duration of intracellular fluorescence (Caski cells) | Effect of heparin on cellular uptake (different cell lines [2]; co-incubated with 0.5 U/mL heparin, different cells) | Effect of serum on penetrating efficiency (different cell lines [2]; different cell lines, mean ± SD for 3 samples) | Effect of temperature on internalization (different cell lines [2])
KIPLPRFKLKCIFCKKRRKR [hPP10] | low membrane disturbance | higher than TAT-FITC group | capable of permeating a wide variety of cancerous or immortalized cell lines | able to permeate into primary cultured cells | minimal cytotoxicity |  |  |  | 
KIPLPRFKLKCIFCKKRRKR [hPP10-FITC, synthesized FITC-labeled hPP10 peptide] |  |  |  |  |  | long-lasting fluorescence than TAT-FITC | greatly decreased in the presence of heparin | decreased in the presence of serum | less energy-sensitive than that of TAT-FITC without DMSO treatment
YGRKKRRQ RRRK [TAT-FITC, FITC-labeled HIV-1 TAT peptide used for positive control, reference compound] |  |  |  |  |  |  |  |  | energy-dependent with or without DMSO treatment
